Source: ChEMBL document CHEMBL1125900, “Biologically active taxol analogues with deleted A-ring side chain substituents and variable C-2' configurations” (J Med Chem, 1991)
pEC50: −log10 of the molar value. ≈ marks a conversion by molar mass, not a printed value. Values belong to the compound of their own block, whether it stands above or below them.

Assays:
[1] = Solubility in H2O was measured; format: physicochemical; conditions: water
J774.2 = assay: Concentration that inhibits cell division by 50% after 72 hr for J774.2 cells was determined; format: functional; conditions: Mus musculus, J774.2, 72 h; read-out: ED50 (the source's name)
CHO = assay: Concentration that inhibits cell division by 50% after 72 hr for CHO cells was determined; format: functional; conditions: Cricetulus griseus, read-out: ED50 (the source's name)
Homo sapiens = organism: Homo sapiens; assay: Effect on microtubule protein assembly was determined in vitro; format: functional

Compound: CC(=O)O[C@H]1C(=O)[C@@]2(C)[C@H]([C@H](OC(=O)c3ccccc3)[C@]3(O)C[C@H](OC(=O)[C@H](C)O)C(C)=C1C3(C)C)[C@]1(OC(C)=O)CO[C@@H]1C[C@@H]2O
- solubility [1]: 1000 µM (≈ 659 µg/mL)
- pEC50 (J774.2): 4.54
- pEC50 (CHO): < 4.35
- Assembly (Homo sapiens): 38%

Compound: CC(=O)O[C@H]1C(=O)[C@@]2(C)[C@H]([C@H](OC(=O)c3ccccc3)[C@]3(O)C[C@H](OC(=O)[C@@H](C)O)C(C)=C1C3(C)C)[C@]1(OC(C)=O)CO[C@@H]1C[C@@H]2O
- solubility [1]: 820 µM (≈ 540 µg/mL)
- pEC50 (J774.2): 4.57
- pEC50 (CHO): < 4.35
- Assembly (Homo sapiens): 31%

Compound: Nc1nc2c(ncn2[C@@H]2O[C@H](COP(=O)(O)OP(=O)(O)OP(=O)(O)O)[C@@H](O)[C@H]2O)c(=O)[nH]1 [GUANOSINE TRIPHOSPHATE]
- Assembly (Homo sapiens): 70%

Compound: CC(=O)O[C@H]1C(=O)[C@@]2(C)[C@H]([C@H](OC(=O)c3ccccc3)[C@]3(O)C[C@H](OC(=O)[C@@H](O)CNC(=O)c4ccccc4)C(C)=C1C3(C)C)[C@]1(OC(C)=O)CO[C@@H]1C[C@@H]2O
- solubility [1]: 565 µM (≈ 439 µg/mL)

Now from value to compound, other results behind:

- solubility [1]: 175 µM (≈ 129 µg/mL)
- pEC50 (J774.2): 5.46
Compound: CC(=O)O[C@H]1C(=O)[C@@]2(C)[C@H]([C@H](OC(=O)c3ccccc3)[C@]3(O)C[C@H](OC(=O)[C@H](O)Cc4ccccc4)C(C)=C1C3(C)C)[C@]1(OC(C)=O)CO[C@@H]1C[C@@H]2O
- pEC50 (CHO): 5.26
- Assembly (Homo sapiens): 68%

- pEC50 (J774.2): 7.05
Compound: CC(=O)O[C@H]1C(=O)[C@@]2(C)[C@H]([C@H](OC(=O)c3ccccc3)[C@]3(O)C[C@H](OC(=O)[C@H](O)[C@@H](NC(=O)c4ccccc4)c4ccccc4)C(C)=C1C3(C)C)[C@]1(OC(C)=O)CO[C@@H]1C[C@@H]2O [PACLITAXEL]
- pEC50 (CHO): 6.46
- Assembly (Homo sapiens): 100%

- solubility [1]: 160 µM (≈ 118 µg/mL)
- pEC50 (J774.2): 5.47
Compound: CC(=O)O[C@H]1C(=O)[C@@]2(C)[C@H]([C@H](OC(=O)c3ccccc3)[C@]3(O)C[C@H](OC(=O)[C@@H](O)Cc4ccccc4)C(C)=C1C3(C)C)[C@]1(OC(C)=O)CO[C@@H]1C[C@@H]2O
- pEC50 (CHO): 5.28
- Assembly (Homo sapiens): 69%

- solubility [1]: 615 µM (≈ 478 µg/mL)
- pEC50 (J774.2): 4.70
Compound: CC(=O)O[C@H]1C(=O)[C@@]2(C)[C@H]([C@H](OC(=O)c3ccccc3)[C@]3(O)C[C@H](OC(=O)[C@H](O)CNC(=O)c4ccccc4)C(C)=C1C3(C)C)[C@]1(OC(C)=O)CO[C@@H]1C[C@@H]2O
- pEC50 (CHO): 4.49
- Assembly (Homo sapiens): 60%
